Results from US10206906B2, “Synergistic combination of a phenolic-rich maple syrup extract and an antibiotic” (priority 2015, dated 2019).
Values after ≈ are worked out from the molar mass of the structure shown. Read-outs that look alike come from different tables or passages of the source. Blank lines part the entries; values can stand above or below the compound they belong to.

Key:
[1] = test system: proton motive force-driven multidrug efflux pump of P. aeruginosa PA14; test: Ethidium bromide (EtBr) efflux assay; format: cell-based, Pseudomonas aeruginosa; details: PRMSE, catechol at 0.25 times the MIC; CCCP 100 μM; untreated cells 30.9
Method: (§1) An overnight grown culture of each strain is diluted 1:100 using MHB-II broth to a final volume of 10 mL and grown to an OD600 of 0.8-1.0 (at 37° C., 150 rpm). […] The tubes are incubated for 1 h (37° C., 150 rpm). The inoculum is then adjusted to 0.4 OD600 with MHB-II broth containing 5 μM EtBr and 2 mL aliquots of this mixture are pelleted (5000×g, 10 min at 4° C.). The pellets are incubated on ice immediately, resuspended in 1 mL of MHB-II, and aliquoted (200 μL) into a polystyrene 96 well black, clear-bottom plate (Corning™, Fisher Scientific, ON, Canada). EtBr efflux from the cells is monitored at room temperature using the microplate reader (ex/em 530/600 nm). Readings are taken at 5 min intervals for 1 h to monitor efflux pump activity. The background fluorescence of the medium is subtracted from all measurements and the assay is repeated independently in triplicate.

[2] = test system: proton motive force-driven multidrug efflux pump of P. aeruginosa PAO1; test: Ethidium bromide (EtBr) efflux assay; format: cell-based, Pseudomonas aeruginosa; details: PRMSE, catechol at 0.25 times the MIC; CCCP 100 μM; untreated cells 37.6
Method: as §1

[3] = test system: proton motive force-driven multidrug efflux pump of E. coli CFT073; test: Ethidium bromide (EtBr) efflux assay; format: cell-based, Escherichia coli; details: PRMSE, catechol at 0.25 times the MIC; CCCP 100 μM; untreated cells 36.9
Method: as §1

[4] = test system: proton motive force-driven multidrug efflux pump of P. mirabilis HI4320; test: Ethidium bromide (EtBr) efflux assay; format: cell-based, Proteus mirabilis; details: PRMSE, catechol at 0.25 times the MIC; CCCP 100 μM; untreated cells 35.9
Method: as §1

P. aeruginosa PA14 [5] = test: Determination of minimum inhibitory concentration (MIC); format: cell-based; details: Pseudomonas aeruginosa, read-out: MIC
Method: (§2) A range of concentration of antibiotics, ciprofloxacin (0.0003-0.25 μg mL^−1) and carbenicillin (0.5-512 μg mL^−1), are chosen due to their known potency against all four bacterial strains. Dilutions are prepared in flat bottom, 96 well microtitre plates (Falcon™, Corning™, Fisher Scientific, ON, Canada). Each well of a microtitre plate is then inoculated with the desired bacterial strain (grown in MHB-II and diluted to […]) and the plate is incubated at 37° C. for 18 h under static conditions. Bacterial growth is assessed by (i) monitoring the optical density of the cell suspension in each well at 600 nm (OD600 nm), and (ii) the resazurin microtitre plate assay. In the resazurin microtitre plate assay, each well of a microtitre plate is supplemented with 20 μM resazurin, incubated in the dark for 20 min at room temperature, followed by fluorescence measurements at ex/em 570/590 nm using a TECAN Infinite M200 Pro microplate reader (Tecan Group Ltd., Switzerland). The lowest concentration of a compound able to prevent increase in OD600 nm and resazurin fluorescence intensity is recorded as the MIC for that compound.

P. aeruginosa PAO1 [6] = test: as above; format: cell-based; details: Pseudomonas aeruginosa, read-out: MIC
Method: as §2

P. aeruginosa PA14 [7] = test: Checkerboard microdilution assay (growth inhibition synergy); format: cell-based, Pseudomonas aeruginosa
Method: (§3) The checkerboard microdilution assay is used for evaluation of in vitro antimicrobial synergy between two compounds (i.e., antibiotic/PRMSE, antibiotic/pure phenolic compound, and pure phenolic compounds with each other). Two-fold serial dilutions are prepared in MHB-II for each of the two compounds under study. The serial dilutions are then loaded into 96 well plates to achieve combinations having different concentrations of each of the two compounds. Each well is subsequently inoculated with 10^6 CFU mL^−1 of the desired bacterial strain and incubated at 37° C. for 18 h under static conditions. The Fractional Inhibitory Concentration Index (FICI) for each combination is calculated by using the following formula: FICcomponent 1=MICcomponent 1, in combination/MICcomponent 1,alone FICI=FICcomponent 1+FICcomponent 2
(§4) The FICIs are interpreted as follows: FICI of […] (synergy); 0.5<FICI ≤1 (no interaction/indifference); FICI of >4 (antagonism).

P. aeruginosa PAO1 [8] = test: as above; format: cell-based, Pseudomonas aeruginosa
Method: as §3, §4

E. coli CFT073 [9] = test: Determination of minimum inhibitory concentration (MIC); format: cell-based; details: Escherichia coli, CFT073, 18 h; read-out: MIC
Method: as §2

P. mirabilis HI4320 [10] = test: as above; format: cell-based; details: Proteus mirabilis, HI4320, 18 h; read-out: MIC
Method: as §2

P. mirabilis HI4320 [11] = test: Checkerboard microdilution assay (growth inhibition synergy); format: cell-based, Proteus mirabilis
Method: as §3, §4

E. coli CFT073 [12] = test: as above; format: cell-based, Escherichia coli
Method: as §3, §4

[13] = carbenicillin/PRMSE combination, FIC of the labelled component
[14] = ciprofloxacin in combination with the labelled phenolic constituent
[15] = labelled phenolic constituent + ciprofloxacin, * = synergistic interaction
[16] = labelled phenolic constituent in combination with ciprofloxacin

SMILES: N#CC(C#N)=NNc1cccc(Cl)c1 [CCCP, carbonyl cyanide m-chlorophenylhydrazone, reference compound]
Efflux pump activity [1]: 17% | % EtBr efflux [2]: 19.3% | Efflux pump activity [3]: 15.8% | Efflux pump activity [4]: 14.5%

MIC (P. aeruginosa PA14 [5]; PA14, antibiotic alone, MHB-II, 37° C., 18 h): 128 µg/mL (≈ 0.338 mM) | MIC (P. aeruginosa PAO1 [6]; PAO1, antibiotic alone, MHB-II, 37° C., 18 h): 64 µg/mL (≈ 0.169 mM)
SMILES: CC1(C)S[C@@H]2[C@H](NC(=O)C(C(=O)O)c3ccccc3)C(=O)N2[C@H]1C(=O)O (stereo partly drawn) [carbenicillin, reference compound]
FIC (P. aeruginosa PA14 [7]; [13]): 0.063 | FIC (P. aeruginosa PAO1 [8]; [13]): 0.13

MIC (P. aeruginosa PA14 [5]; PA14, 18 h): 5000 µg/mL (≈ 29.4 mM) | MIC (E. coli CFT073 [9]): 5000 µg/mL (≈ 29.4 mM) | MIC (P. aeruginosa PAO1 [6]; PAO1, 18 h): 5000 µg/mL (≈ 29.4 mM) | MIC (P. mirabilis HI4320 [10]): 5000 µg/mL (≈ 29.4 mM)
SMILES: O=C(O)c1cc(O)c(O)c(O)c1 [gallic acid]
FIC of ciprofloxacin (P. mirabilis HI4320 [11]; [14]): 1 | FICI (P. mirabilis HI4320 [11]; [15]): 2 | FIC of compound (P. mirabilis HI4320 [11]; [16]): 1 | FIC of ciprofloxacin (E. coli CFT073 [12]; [14]): 1 | FICI (E. coli CFT073 [12]; [15]): 2 | FIC of compound (E. coli CFT073 [12]; [16]): 1 | FIC of ciprofloxacin (P. aeruginosa PA14 [7]; [14]): 1 | FICI (P. aeruginosa PA14 [7]; [15]): 2 | FIC of compound (P. aeruginosa PA14 [7]; [16]): 1 | FIC of ciprofloxacin (P. aeruginosa PAO1 [8]; [14]): 1 | FICI (P. aeruginosa PAO1 [8]; [15]): 2 | FIC of compound (P. aeruginosa PAO1 [8]; [16]): 1
